Experimental data taken from the supplement of paper PMC10307832.

How the values were obtained:
Test in all cases: relative viability (nuclei count vs DMSO), 5 days (fraction); higher = more cells survive
[1] = compound: CCc1c2c(nc3ccc(OC(=O)N4CCC(N5CCCCC5)CC4)cc13)-c1cc3c(c(=O)n1C2)COC(=O)[C@]3(O)CC [Irinotecan] + NC(=O)Nc1cc(-c2cccc(F)c2)sc1C(=O)N[C@H]1CCCNC1 [AZD7762] (partner 0.2 µM)
In short: (§1)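 Each reported value is a median over duplicate plates. It expresses relative viability: treated-well nuclei count divided by vehicle-well nuclei count. Lung cancer cell lines in 1536-well plates were dosed by pin tool a day after seeding, alone with one drug or with a fixed anchor-drug dose plus five library-drug doses (not always all listed) in √10 steps, and nuclei were counted after 5 days.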

[2] = compound: Cn1cc(-c2cnc3ccc4ccc(CS(=O)(=O)NCc5ccccn5)cc4c(=O)c3c2)cn1 [MK-8033] + Cc1nc(Nc2ncc(C(=O)Nc3c(C)cccc3Cl)s2)cc(N2CCN(CCO)CC2)n1 [Dasatinib] (partner 0.075 µM)
In short: as §1

[3] = compound: Cn1cc(-c2cnc3ccc4ccc(CS(=O)(=O)NCc5ccccn5)cc4c(=O)c3c2)cn1 [MK-8033] + COc1cc2c(Oc3ccc(NC(=O)C4(C(=O)Nc5ccc(F)cc5)CC4)cc3F)ccnc2cc1OCCCN1CCOCC1 [Foretinib] (partner 0.25 µM)
In short: as §1

[4] = compound: CC[C@@H](C)CNCC(=O)N1CCC2=C([C@@H]1COC3=CC=CC(=C3)C)C=CS2 [RU-SKI 43] + Nc1nc2[nH]cc(CCc3ccc(C(=O)N[C@@H](CCC(=O)O)C(=O)O)cc3)c2c(=O)[nH]1 [Pemetrexed] (partner 0.2 µM)
In short: as §1

NCI-H650 gave a relative viability ([1]; first compound 0.6325 µM) of 0.722, a relative viability ([1]; first compound 2 µM) of 1.09 and a relative viability ([1]; first compound 6.325 µM) of 0.309. The relative viability ([1]; first compound 20 µM) was 0.217, the relative viability ([2]; first compound 0.02 µM) was 0.491 and the relative viability ([2]; first compound 0.06325 µM) was 0.446. It also gave a relative viability ([2]; first compound 0.2 µM) of 0.471, a relative viability ([2]; first compound 0.6325 µM) of 0.386 and a relative viability ([2]; first compound 2 µM) of 0.489. It also gave a relative viability ([3]; first compound 0.02 µM) of 1.06, a relative viability ([3]; first compound 0.06325 µM) of 1.08 and a relative viability ([3]; first compound 0.2 µM) of 1.02. It also gave a relative viability ([3]; first compound 0.6325 µM) of 1.02, a relative viability ([3]; first compound 2 µM) of 1.02 and a relative viability ([4]; first compound 0.1 µM) of 0.907. The relative viability ([4]; first compound 0.3162 µM) was 0.962, the relative viability ([4]; first compound 3.162 µM) was 0.879 and the relative viability ([4]; first compound 10 µM) was 0.932.

Cell Line 201T has a relative viability ([1]; first compound 0.6325 µM) of 0.456, a relative viability ([1]; first compound 2 µM) of 0.416 and a relative viability ([1]; first compound 6.325 µM) of 0.345. The relative viability ([1]; first compound 20 µM) was 0.266, the relative viability ([2]; first compound 0.02 µM) was 0.646 and the relative viability ([2]; first compound 0.06325 µM) was 0.62. For the same cell line, the relative viability ([2]; first compound 0.2 µM) was 0.573, the relative viability ([2]; first compound 0.6325 µM) was 0.533 and the relative viability ([2]; first compound 2 µM) was 0.614. For the same cell line, the relative viability ([3]; first compound 0.02 µM) was 1.06, the relative viability ([3]; first compound 0.06325 µM) was 1.05 and the relative viability ([3]; first compound 0.2 µM) was 1.13. For the same cell line, the relative viability ([3]; first compound 0.6325 µM) was 1.19, the relative viability ([3]; first compound 2 µM) was 1.1 and the relative viability ([4]; first compound 0.1 µM) was 0.374. The relative viability ([4]; first compound 0.3162 µM) was 0.311, the relative viability ([4]; first compound 1 µM) was 0.307 and the relative viability ([4]; first compound 3.162 µM) was 0.358. It also gave a relative viability ([4]; first compound 10 µM) of 0.321.

Work on NCI-H1915 yielded a relative viability ([1]; first compound 0.6325 µM) of 0.387, a relative viability ([1]; first compound 2 µM) of 0.346 and a relative viability ([1]; first compound 6.325 µM) of 0.165. For the same cell line, the relative viability ([1]; first compound 20 µM) was 0.127, the relative viability ([2]; first compound 0.02 µM) was 0.298 and the relative viability ([2]; first compound 0.06325 µM) was 0.273. For the same cell line, the relative viability ([2]; first compound 0.2 µM) was 0.309, the relative viability ([2]; first compound 0.6325 µM) was 0.309 and the relative viability ([2]; first compound 2 µM) was 0.303. The relative viability ([3]; first compound 0.02 µM) was 1.08, the relative viability ([3]; first compound 0.06325 µM) was 0.997 and the relative viability ([3]; first compound 0.2 µM) was 1.05. It also gave a relative viability ([3]; first compound 0.6325 µM) of 1.07, a relative viability ([3]; first compound 2 µM) of 1.11 and a relative viability ([4]; first compound 0.1 µM) of 0.483. The relative viability ([4]; first compound 0.3162 µM) was 0.693, the relative viability ([4]; first compound 1 µM) was 0.602 and the relative viability ([4]; first compound 3.162 µM) was 0.515. The relative viability ([4]; first compound 10 µM) was 0.443.

NCI-H358 gave a relative viability ([1]; first compound 0.6325 µM) of 0.38, a relative viability ([1]; first compound 2 µM) of 0.508 and a relative viability ([1]; first compound 6.325 µM) of 0.339. It also gave a relative viability ([1]; first compound 20 µM) of 0.349, a relative viability ([2]; first compound 0.02 µM) of 0.15 and a relative viability ([2]; first compound 0.06325 µM) of 0.149. It also gave a relative viability ([2]; first compound 0.2 µM) of 0.198, a relative viability ([2]; first compound 0.6325 µM) of 0.163 and a relative viability ([2]; first compound 2 µM) of 0.175. The relative viability ([3]; first compound 0.02 µM) was 0.801, the relative viability ([3]; first compound 0.06325 µM) was 0.511 and the relative viability ([3]; first compound 0.2 µM) was 0.72. For the same cell line, the relative viability ([3]; first compound 0.6325 µM) was 0.565, the relative viability ([3]; first compound 2 µM) was 0.643 and the relative viability ([4]; first compound 0.1 µM) was 0.169. The relative viability ([4]; first compound 0.3162 µM) was 0.189, the relative viability ([4]; first compound 1 µM) was 0.17 and the relative viability ([4]; first compound 3.162 µM) was 0.176. It also gave a relative viability ([4]; first compound 10 µM) of 0.176.
